{"source": "patent US9072729B2", "about": "“Method for treating fibrosis and cancer with imidazolium and imidazolinium compounds” (Agency for Science, Technology and Research, priority 2008, dated 2015)", "key": {"GFAP-LacZ transgene": {"system": "GFAP-LacZ transgene", "assay": "β-galactosidase activity in T6/GFAP-lacZ cells", "format": "cell-based, rat", "procedure": "FIG. 12. (a) DBZIM and (b) TDBZIM attenuated GFAP-LacZ transgene as reported by β-galactosidase activity. Stable transfected T6 GFAP-LacZ cells were treated with compounds of 1-300 μM concentrations, and assayed after 24 h and 48 h. The (3-galactosidase activity was normalized to the total protein, and presented as relative value after comparing to the vehicle control. The data were presented as mean and SEM, N=6, *^cP<0.005, and *^dP<0.0005, when compared to the vehicle control.\nBeta-galactosidase activity in extracts from T6/GFAP-lacZ cells treated by DBZIM or TDBZIM was measured using a chemiluminescent assay kit (Roche, Mannheim, Germany) in a 96-well plate format, according to the manufacturer's instructions. Briefly, cells were washed twice with ice-cold 1×PBS (pH 7.4), and lysed for 30 min at room temperature in the lysis buffer. The supernatant was collected for assays with a Tecan Sere II plate reader. Protein concentration was determined with a BCA protein assay kit (Pierce, Ill., USA). Specific β-galactosidase activity was obtained by normalizing against total cellular protein content."}, "[1]": {"details": "culture medium for human esophageal cancer cells (Hou et al. 2005); cited from earlier work"}, "[2]": {"assay": "Stability in drinking water by NMR analysis", "format": "physicochemical", "details": "room temperature"}, "HLE cells [3]": {"system": "HLE cells", "assay": "ROS determination in HLE cells (dihydroethidium)", "format": "cell-based, human", "details": "millimolar range, 24 hr", "procedure": "FIG. 27. High dose DBZIM induced ROS production in HLE cells. HLE cells were grown in 96-Well plate and treated by DBZIM for 24 hr. The cells were then fixed and stained by DHE for quantification of ROS generation. The images ware acquired and analyzed using ArrayScan VTI HCS reader (Thermal Scientific, PA, USA) and Target Activation BioApplication software.\nOxidative stress was measured using Cellomic HitKit (Thermo Scientific, IL, USA). HLE cells were treated with DBZIM for 24 hr, fixed and labeled by Dihydroethidium probe for quantitation of ROS generation and Hoechst dye for nuclear staining. The result was analyzed by Target Activation BioApplication software. The percentage of positive responding cells was plotted as the indication of ROS amount."}, "[4]": {"system": "caspase 3, 8 and 9 in HLE cells", "assay": "Protein extract based caspase 3/8/9 colorimetric assays", "format": "cell-based, human", "details": "24 hr", "procedure": "FIG. 23. (A). […] HLE cells were grown in a T75 flask and treated with DBZIM for 24 hr. The cells were then lysed and cytoplasmic protein was collected for assaying caspase 8, 9 and 3 using kits from Biovision. The data was normalized against the vehicle control. (B). […] HLE cells were treated by DBZIM of 1.5 mM for 24 hr. Cytosolic and mitochondria protein fractions were collected using a kit from Biovision. 15 μg of each protein was resolved in 4-12% gradient PAGE-SDS gel. The target proteins were recognized by antibody of cytochrome C, and visualized by the ECL method. The membrane was stripped and probed for the α-tubulin as the loading control for cytosolic fraction and Cox4 for mitochondria fraction.\nCapspase 3/8/9 activities were determined using total protein extract as starting material (Biovision Inc., CA, USA). HLE cells were cultured in T75 flask and treated with DBZIM of various concentrations. Cytosolic protein extract was collected by pelleting and lysing the cells and centrifugation to remove the debris. Capspase 3, 8 and 9 activities were assayed using the same protein extract but adding the respective substrate. Absorbance readings were taken at 405 nm using Tecan Safire II plate reader. Results were expressed as relative caspase activity by normalizing to control cells without compound treatment."}, "phospho-Ser473-Akt": {"system": "phospho-Ser473-Akt", "assay": "Western blot of phosphorylated Akt", "format": "cell-based, human", "details": "H1299, MCF-7, AGS and MKN28, IC50 concentration, 24 h to 72 h", "from_the_text": "FIG. 32. DBZIM inhibits phosphorylation of Akt. […] Time course inhibition of phosphorylated-AKT was shown by Western blot. β-actin was used as an internal loading control.\nThe Akt (also known as protein kinase B) kinase signaling pathway is activated in a variety of carcinomas of lung, breast, colon, and pancreatic and other tumor types through over-expressing the Akt protein itself and/or increasing phosphorylation of Akt. This study provided evidence that DBZIM is particularly efficacious in inducing apoptosis in AGS, H1299 and MCF-7 cells through a mechanism involving the reduction in the levels of the, phospho-AKT."}, "[5]": {"system": "liver fibrosis induced by thioacetamide (TAA)", "assay": "Liver fibrosis in mice induced by thioacetamide (TAA)", "format": "in vivo, mouse", "details": "TAA model, 500 mg/L in drinking water, 12 weeks", "procedure": "FIG. 15 Effect of DBZIM and DPIM on liver fibrosis in mice. DBZIM was tested on mice induced by (a) liver toxin thioacetamide (TAA) or by (b) bile duct ligation (BDL). DPIM was also tested on mice induced by TAA (data not shown)) or by (c) bile duct ligation (BDL).\nFor the liver toxin thioacetamide (TAA) model, TAA was given by i.p. injection at 200 mg/kg body weight, 3 times per week, for 12 weeks, to induce hepatic fibrosis in mice. For the bile duct ligation model (BDL), adult mice were anesthetized with Ketamine (150 mg/kg)/Xylazine (10 mg/kg) via i.p. injection. An abdominal incision at the midline is made to expose the common bile conduct, which was then ligated using 5-0 silk suture. In the control animal, the bile duct is exposed, but not ligated. DBZIM or DPIM was provided to the mice in drinking water at concentrations from 1 to 1000 mg/liter. The collagen content in the fibrotic liver was assessed by the Sirius Red staining of the liver tissue sections."}, "HLE cells [6]": {"system": "HLE cells", "assay": "Annexin V staining and flow cytometry, HLE", "format": "cell-based, human", "details": "24 hr, TRAIL 100 ng/ml", "procedure": "FIG. 22. […] HLE or HepG2 cells were incubated with DBZIM of various concentrations for 6 hr, and assayed for caspase 3/7 activity and LDH releasing (expressed as % toxicity). DBZIM induced apoptosis as characterized by annexin V staining using flow cytometer in HLE (E) and HepG2 (F). Scatter plot and histogram gave the representative information on the cell population distribution while bar graphs quantified the percentage of apoptotic cells from the histogram. HLE and HepG2 cells were treated by DBZIM of various concentrations for 24 hr before harvesting for annexin V staining and flow cytometric analysis.\nHLE and HepG2 cells were treated with various concentrations of DBZIM or TRAIL (100 ng/ml) for 24 hr, harvested and labeled with Annexin V-FITC (BioVision, CA, USA). The labeled cells were analysed by flow cytometry FACSCalibur ([…], NJ, USA) and CellQuest software. Cells showing green staining in the plasma membrane were considered as apoptotic cells."}}, "data": [{"molecule": "1,3,5-tris(4-methyl-imidazolium)-linked cyclophane.3Br [TDBZIM]", "values": [{"measurement": "suppression of β-galactosidase activity (transient)", "setting": "GFAP-LacZ transgene; 100 μM, 24 h", "result": 20, "unit": "%"}]}, {"molecule": "(−)-Epigallocatechin gallate [EGCG, reference compound]", "values": [{"measurement": "half life in culture medium", "setting": "[1]", "result": 30, "unit": "min"}]}, {"molecule": "CC(C)n1cc[n+](C(C)C)c1.F[B-](F)(F)F", "note": "[DPIM, 1,3-diisopropylimidazolium tetrafluoroborate]", "values": [{"measurement": "stability in water", "setting": "[2]", "result": "stable in water at room temperature condition for at least two weeks"}]}, {"molecule": "[Br-].c1ccc(Cn2cc[n+](Cc3ccccc3)c2)cc1", "note": "[DBZIM, 1,3-bisbenzylimidazolium bromide]", "values": [{"measurement": "ROS generation", "setting": "HLE cells [3]", "result": "generated significant amount of ROS"}, {"measurement": "suppression of β-galactosidase activity", "setting": "GFAP-LacZ transgene; 100 μM", "result": 25, "unit": "%"}, {"measurement": "suppression of β-galactosidase activity", "setting": "GFAP-LacZ transgene; 300 μM", "result": 34, "unit": "%"}, {"measurement": "caspase 3 activity", "setting": "[4]", "result": "dose-dependently enhanced"}, {"measurement": "caspase 8 activity", "setting": "[4]", "result": "not affected"}, {"measurement": "caspase 9 activity", "setting": "[4]", "result": "dose-dependently enhanced"}, {"measurement": "active form of Akt (phospho-Ser473-Akt)", "setting": "phospho-Ser473-Akt", "result": "appreciable down-regulation"}, {"measurement": "liver fibrosis (Sirius Red collagen)", "setting": "[5]", "result": "attenuated fibrosis"}, {"measurement": "apoptosis (annexin V staining)", "setting": "HLE cells [6]", "result": "dose-dependently induced apoptosis"}]}]}
